Experimental data from ChEMBL document CHEMBL5390242, “Design, Synthesis, and Antitumor Efficacy of Substituted 2-Amino[1,2,4]triazolopyrimidines and Related Heterocycles as Dual Inhibitors for Microtubule Polymerization and Janus Kinase 2” (J Med Chem, 2023).
pIC50: −log10 of the molar value. Calls of active or inactive are those of the source. The calls are words filed in the database; no cut-off is given here.

Assays:
KP-4 = test: Antiproliferative activity against human KP-4 cells assessed as cell growth inhibition incubated for 48 hrs by MTT assay; format: functional, cell-based; settings: KP-4, 48 h
A549 [1] = test: Antiproliferative activity against human A549 cells assessed as cell growth inhibition incubated for 48 hrs by MTT assay; format: functional, cell-based; settings: A549, 48 h
[2] = target: Tyrosine-protein kinase JAK2 (Homo sapiens, UniProt O60674); test: Inhibition of JAK2 (unknown origin) using Poly-(Glu,Tyr 4:1) peptide as substrate at 1 uM in presence of ATP by ADP-Glo reagent based assay relative to control
[3] = Metabolic stability in mouse liver microsomes assessed as half life incubated for 10 mins in presence of NADPH by LC-MS/MS analysis; format: ADME, Microsome
A549 [4] = test: Induction of apoptosis in human A549 cells at 10 uM incubated for 24 hrs by Annexin V-FITC/PI staining based flow cytometry; format: functional
A549 [5] = test: Induction of apoptosis in human A549 cells at 5 uM incubated for 24 hrs by Annexin V-FITC/PI staining based flow cytometry; format: functional
COLO 205 = test: Cytotoxicity against human COLO 205 cells assessed as cell growth inhibition incubated for 48 hrs by MTT assay; format: functional, cell-based; settings: COLO 205, 48 h
HepG2 = test: Cytotoxicity against human HepG2 cells assessed as cell growth inhibition incubated for 48 hrs by MTT assay; format: functional, cell-based; settings: HepG2, 48 h
HCT-8 = test: Antiproliferative activity against human HCT-8 cells assessed as cell growth inhibition incubated for 48 hrs by MTT assay; format: functional, cell-based; settings: HCT-8, 48 h
[6] = Resistance index, ratio of IC50 for antiproliferative activity against human A549/DDP cells to IC50 for antiproliferative activity against human A549 cells; format: functional
[7] = Antiproliferative activity against Chinese hamster CHO cells assessed as cell growth inhibition incubated for 48 hrs by MTT assay; format: toxicity, cell-based, Cricetulus griseus
[8] = AUC (0 to t) in CD-1 mouse at 1 mg/kg,iv measured upto 24 hrs by HPLC-MS/MS analysis; format: ADME, organism-based; design: dose 1 mg/kg, time < 24 hrs, route iv; settings: in vivo
[9] = MRT (0 to infinity) in CD-1 mouse at 1 mg/kg,iv measured upto 24 hrs by HPLC-MS/MS analysis; format: ADME, organism-based; settings: in vivo
[10] = MRT (0 to infinity) in CD-1 mouse at 10 mg/kg,ip measured upto 24 hrs by HPLC-MS/MS analysis; format: ADME, organism-based; settings: in vivo
[11] = Cmax in CD-1 mouse at 10 mg/kg,ip measured upto 24 hrs by HPLC-MS/MS analysis; format: ADME, organism-based; design: time < 24 hrs, dose 10 mg/kg, route ip; settings: in vivo
[12] = Oral bioavailability in CD-1 mouse at 10 mg/kg,ip measured upto 24 hrs by HPLC-MS/MS analysis; format: ADME, organism-based; settings: in vivo
[13] = AUC (0 to t) in CD-1 mouse assessed as AUC (0 to t) of metabolite at 10 mg/kg,ip measured upto 24 hrs by HPLC-MS/MS analysis; format: ADME, organism-based; design: dose 10 mg/kg, time < 24 hrs, route ip; settings: in vivo
[14] = Half life in CD-1 mouse assessed as half life of metabolite at 10 mg/kg,ip measured upto 24 hrs by HPLC-MS/MS analysis; format: ADME, organism-based; settings: in vivo
[15] = Tmax in CD-1 mouse assessed as Tmax of metabolite at 10 mg/kg,ip measured upto 24 hrs by HPLC-MS/MS analysis; format: ADME, organism-based; settings: in vivo
[16] = Oral bioavailability in CD-1 mouse assessed as Oral bioavailability of metabolite at 10 mg/kg,ip measured upto 24 hrs by HPLC-MS/MS analysis; format: ADME, organism-based; settings: in vivo
Tubulin (Sus scrofa) = Tubulin (Sus scrofa) (UniProt P02554+P02550); test: Inhibition of porcine brain tubulin polymerization at 0.625 to 2.5 uM measured for 30 mins in presence of GTP by microplate reader assay; format: tissue-based; settings: dose 0.625-2.5 µM
Tubulin (Homo sapiens) = Tubulin (Homo sapiens) (UniProt P68371+Q9H4B7+P0DPH7+P68366+Q13509+Q71U36+P04350+Q3ZCM7+P07437+P68363+Q9BQE3+Q6PEY2+Q13885+Q9BVA1+Q9BUF5); test: Disruption of microtubule assembly in human A549 cells at 1 uM incubated for 6 hrs by Hoechst33342 staining based immunofluorescence analysis; format: cell-based
[17] = target: JAK2-STAT3 (Homo sapiens) (UniProt O60674+P40763); test: Inhibition of JAK2/STAT3 signalling pathway in human A549 cells assessed as effect on JAK2 protein level at 5 to 20 uM incubated for 24 hrs by Western blotting analysis; format: cell-based; settings: dose 5-20 µM
A549 [18] = test: Induction of cell cycle arrest in human A549 cells assessed as accumulation of cells at G2/M phase at 20 nM incubated for 24 hrs by PI/RNase staining based flow cytometry analysis; format: functional
A549 [19] = test: Induction of apoptosis in human A549 cells assessed as viable cells at 5 nM incubated for 24 hrs by Annexin V-FITC/PI staining based flow cytometry (reference value: 93 %); format: functional; settings: read-out: Activity
A549 [20] = test: Induction of apoptosis in human A549 cells assessed as viable cells at 10 nM incubated for 24 hrs by Annexin V-FITC/PI staining based flow cytometry (reference value: 93 %); format: functional; settings: read-out: Activity
A549 [21] = test: Induction of apoptosis in human A549 cells assessed as viable cells at 20 nM incubated for 24 hrs by Annexin V-FITC/PI staining based flow cytometry (reference value: 93 %); format: functional; settings: read-out: Activity
A549 [22] = test: Induction of apoptosis in human A549 cells assessed as early apoptotic cells at 5 nM incubated for 24 hrs by Annexin V-FITC/PI staining based flow cytometry (reference value: 4.61 %); format: functional
A549 [23] = test: Induction of apoptosis in human A549 cells assessed as late apoptotic cells at 10 nM incubated for 24 hrs by Annexin V-FITC/PI staining based flow cytometry (reference value: 1.72 %); format: functional
A549 [24] = test: Induction of apoptosis in human A549 cells assessed as necrotic cells at 5 nM incubated for 24 hrs by Annexin V-FITC/PI staining based flow cytometry (reference value: 0.67 %); format: functional
A549 [25] = test: Induction of apoptosis in human A549 cells assessed as increase in mitochondrial ROS level at 5 to 20 nM incubated for 16 hrs by MitoSOX red dye based fluorescence microscopy; format: functional, cell-based; settings: dose 5-20 nM
A549 [26] = test: Induction of mitochondrial membrane potential loss in human A549 cells by measuring red fluorescence at 5 nM incubated for 16 hrs by JC-1 staining based flow cytometry analysis (reference value: 99.3 %); format: functional
A549 [27] = test: Induction of mitochondrial membrane potential loss in human A549 cells by measuring red fluorescence at 10 nM incubated for 16 hrs by JC-1 staining based flow cytometry analysis (reference value: 99.3 %); format: functional
A549 [28] = test: Induction of mitochondrial membrane potential loss in human A549 cells by measuring red fluorescence at 20 nM incubated for 16 hrs by JC-1 staining based flow cytometry analysis (reference value: 99.3 %); format: functional
A549 [29] = test: Induction of mitochondrial membrane potential loss in human A549 cells by measuring green fluorescence at 5 nM incubated for 16 hrs by JC-1 staining based flow cytometry analysis (reference value: 0.7 %); format: functional
[30] = Toxicity in Balb/c mouse xenografted with human A549 cells assessed as change in body weight at 50 mg/kg,ip administration measured after 31 days; format: organism-based; settings: in vivo, 744 h, time 31 day

Tyrosine-protein kinase JAK2, sequence (O60674 whole entry): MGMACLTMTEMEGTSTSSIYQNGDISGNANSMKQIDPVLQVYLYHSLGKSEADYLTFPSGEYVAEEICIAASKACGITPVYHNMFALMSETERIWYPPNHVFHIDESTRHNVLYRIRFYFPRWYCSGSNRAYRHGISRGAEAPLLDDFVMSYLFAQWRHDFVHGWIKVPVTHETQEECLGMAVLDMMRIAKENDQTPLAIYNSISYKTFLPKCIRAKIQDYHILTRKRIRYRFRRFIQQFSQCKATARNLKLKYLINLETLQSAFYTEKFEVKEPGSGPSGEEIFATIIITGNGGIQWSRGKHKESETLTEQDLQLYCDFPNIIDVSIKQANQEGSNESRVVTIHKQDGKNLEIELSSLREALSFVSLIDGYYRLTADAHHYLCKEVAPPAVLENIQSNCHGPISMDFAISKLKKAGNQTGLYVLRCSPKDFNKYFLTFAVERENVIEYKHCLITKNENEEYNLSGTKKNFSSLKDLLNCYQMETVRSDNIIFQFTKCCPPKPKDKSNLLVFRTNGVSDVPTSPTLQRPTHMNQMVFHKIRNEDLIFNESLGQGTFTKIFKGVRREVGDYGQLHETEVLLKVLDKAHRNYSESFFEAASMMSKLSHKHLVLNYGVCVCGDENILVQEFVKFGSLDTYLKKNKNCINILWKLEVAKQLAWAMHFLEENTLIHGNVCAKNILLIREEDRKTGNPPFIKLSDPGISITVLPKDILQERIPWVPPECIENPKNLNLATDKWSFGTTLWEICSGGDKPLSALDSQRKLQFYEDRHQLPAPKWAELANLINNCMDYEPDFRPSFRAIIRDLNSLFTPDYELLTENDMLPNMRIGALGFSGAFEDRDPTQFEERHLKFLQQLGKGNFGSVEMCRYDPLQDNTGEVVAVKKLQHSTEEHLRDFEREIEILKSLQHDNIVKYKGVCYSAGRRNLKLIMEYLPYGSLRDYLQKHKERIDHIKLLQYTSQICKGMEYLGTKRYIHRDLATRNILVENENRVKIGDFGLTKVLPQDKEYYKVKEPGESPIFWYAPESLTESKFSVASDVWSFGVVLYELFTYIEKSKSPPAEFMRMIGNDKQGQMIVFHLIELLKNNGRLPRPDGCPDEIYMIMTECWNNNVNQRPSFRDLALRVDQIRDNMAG
Tubulin (Sus scrofa), sequence (P02550 whole entry, looked up): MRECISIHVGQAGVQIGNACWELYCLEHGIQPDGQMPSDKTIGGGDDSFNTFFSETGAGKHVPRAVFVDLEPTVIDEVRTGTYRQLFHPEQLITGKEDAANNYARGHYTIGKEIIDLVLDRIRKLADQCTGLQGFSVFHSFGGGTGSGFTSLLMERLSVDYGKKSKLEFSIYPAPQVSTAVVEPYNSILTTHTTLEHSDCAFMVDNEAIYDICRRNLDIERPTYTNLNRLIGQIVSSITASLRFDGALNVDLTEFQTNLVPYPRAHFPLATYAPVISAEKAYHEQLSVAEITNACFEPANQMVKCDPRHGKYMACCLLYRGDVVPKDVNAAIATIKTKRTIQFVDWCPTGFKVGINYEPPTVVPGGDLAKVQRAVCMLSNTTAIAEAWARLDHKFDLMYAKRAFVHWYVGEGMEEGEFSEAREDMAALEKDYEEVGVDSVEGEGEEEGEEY
Tubulin (Sus scrofa), sequence (P02554 whole entry, looked up): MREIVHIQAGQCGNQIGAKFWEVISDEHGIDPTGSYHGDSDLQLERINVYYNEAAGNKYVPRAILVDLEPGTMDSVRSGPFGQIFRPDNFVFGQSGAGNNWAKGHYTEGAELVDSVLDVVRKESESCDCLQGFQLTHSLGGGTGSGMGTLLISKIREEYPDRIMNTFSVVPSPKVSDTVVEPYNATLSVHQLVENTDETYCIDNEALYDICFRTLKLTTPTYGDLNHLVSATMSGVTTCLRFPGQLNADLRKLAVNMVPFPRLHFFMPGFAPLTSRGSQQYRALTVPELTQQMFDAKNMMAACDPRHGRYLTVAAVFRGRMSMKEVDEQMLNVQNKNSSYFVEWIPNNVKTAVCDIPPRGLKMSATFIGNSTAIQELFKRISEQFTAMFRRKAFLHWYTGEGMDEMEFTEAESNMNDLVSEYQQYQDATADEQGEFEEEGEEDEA

SMILES: COc1cc(-c2nccc3nc(Nc4cccc5[nH]ccc45)nn23)cc(OC)c1OC
- pIC50 (KP-4): 7.89
- pIC50 (A549 [1]): 8.10
- inhibition [2]: 97%
- half-life [3]: 21.7 min
- Activity (A549 [4]): 40.6%
- Activity (A549 [5]): 8.9%
- pIC50 (COLO 205): 7.92
- pIC50 (HepG2): 7.29
- pIC50 (HCT-8): 7.47
- Ratio IC50 [6]: 0.5
- IC50 at 48 h [7]: 24 nM
- AUC(0-t) at 24 h [8]: 364 ng·h/mL
- MRT inf [9]: 7.1 h
- MRT inf [10]: 5.6 h
- Cmax [11]: 158 ng/mL
- bioavailability [12]: 15.4%
- AUCt [13]: 2534.7 ng·h/mL
- t1/2 [14]: 5.3 h
- Tmax [15]: 1 h
- F [16]: 69.7%
- inhibition (Tubulin (Sus scrofa)): Active
- Activity (Tubulin (Homo sapiens)): Active
- inhibition [17]: inactive
- Activity (A549 [18]): 91.5%
- viability at 0.005 µM (A549 [19]): 90.5%
- viability at 0.01 µM (A549 [20]): 55.4%
- viability at 0.02 µM (A549 [21]): 9.34%
- Activity (A549 [22]): 7.51%
- Activity (A549 [23]): 14.7%
- Activity (A549 [24]): 0.21%
- Activity (A549 [25]): Active
- Activity (A549 [26]): 89.1%
- Activity (A549 [27]): 73.6%
- Activity (A549 [28]): 55.9%
- Activity (A549 [29]): 10.9%
- Activity [30]: Non-Toxic
